Here are results for 25 compounds from ChEMBL document CHEMBL1201862, “PubChem BioAssay data set” (2004).

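Results reflect a 48-hour exposure of cells in 96-well plates to compound at five concentrations. The concentration for 50% growth inhibition is given as GI50.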 Activity calls are given as the source filed them. Cut-off read from the data, not from the text of the source: active = GI50 up to about 1.1 µM and inactive = higher.

Test systems include DMS-114; DMS-273; KM-20L2; LXFL 529; M19-MEL; RXF 631; SNB-78; XF498; HOP-18.
Experiment in all cases: growth of human tumour cells (NCI), 48 h

`N#C/C(=C1\OC(=N)C(c2ccc(Cl)cc2Cl)C1=O)c1ccc(Cl)cc1Cl` (centres undefined): the GI50 in the assay with DMS-114, with DMS-273, in the assay on KM-20L2, in the assay on LXFL 529, in the assay on M19-MEL and in the assay with RXF 631 was > 100 µM (inactive) in each case. Further, the values for the GI50 in the assay with SNB-78 and with XF498 were > 100 µM (inactive) and 86.9 µM (inactive), respectively.
`Nn1c(S)nnc1N/N=C1/C(=O)Nc2ccccc21`: the GI50 was > 100 µM (inactive) with DMS-114; 70.5 µM (inactive) in the assay on HOP-18; > 100 µM (inactive) with KM-20L2; 39.5 µM (inactive) in the assay on LXFL 529; > 100 µM (inactive) in the assay with M19-MEL; > 100 µM (inactive) in the assay on SNB-78. Also, in the assay with XF498, the GI50 was 37.9 µM (inactive).
Regarding `Cn1cnc([N+](=O)[O-])c1Sc1nc2cc(Cl)c(F)cc2[nH]1`, the GI50 is 6.35 µM (inactive) in the assay with DMS-114; 3.54 µM (inactive) in the assay with DMS-273; 7.8 µM (inactive) with HOP-18; 11.4 µM (inactive) in the assay with KM-20L2; 5.7 µM (inactive) with LXFL 529; 11.7 µM (inactive) in the assay on M19-MEL. Besides, in the assay on SNB-78, the GI50 was 2.43 µM (inactive).
Turning to `c1ccc(CN2CCCCC(Sc3ccccc3)CC2)cc1` (centres undefined), the GI50 in the assay on DMS-114 was 22.4 µM (inactive); in the assay on DMS-273, 12.6 µM (inactive); in the assay on HOP-18, 42.7 µM (inactive); in the assay with KM-20L2 it was 26.4 µM (inactive); in the assay with LXFL 529, 17.7 µM (inactive); with M19-MEL it was 3.1 µM (inactive). Besides, the GI50 in the assay on SNB-78 was 27.2 µM (inactive).
Consider `CC12CCC([C@H](N3CCOCC3)/C1=N\OCCN1CCCC1)C2(C)C` (some centres undefined), for which the GI50 with DMS-114 is 71.9 µM (inactive); with DMS-273, > 100 µM (inactive); in the assay with HOP-18, > 100 µM (inactive); in the assay on KM-20L2, > 100 µM (inactive); in the assay with LXFL 529 it was > 100 µM (inactive); with M19-MEL, > 100 µM (inactive). Also, the GI50 in the assay with RXF 631 and in the assay with SNB-78 was > 100 µM (inactive) throughout.
Turning to `CC12CCC(=O)N1c1cccnc1N2` (centres undefined), the GI50 with DMS-114, with KM-20L2, with LXFL 529, with M19-MEL, with SNB-78 and in the assay with XF498 was > 100 µM (inactive) throughout.
With `C[C@]12CC(C#N)C(=O)C(O)=C1CC[C@@H]1C2CC[C@@]2(C)C1CC[C@@H]2O` (some centres undefined), the GI50 with DMS-114 is 49 µM (inactive); in the assay on DMS-273, 17.3 µM (inactive); in the assay with KM-20L2, 95.5 µM (inactive); in the assay on LXFL 529, 65.5 µM (inactive); in the assay with SNB-78 it was 65.3 µM (inactive); in the assay on XF498 it was 18.8 µM (inactive).
On to `NC(=O)N/N=C(/c1nc2ccc([N+](=O)[O-])cc2nc1O)C(O)c1ccco1` (centres undefined), for which the GI50 with DMS-114 was 28.8 µM (inactive); with DMS-273, 20.5 µM (inactive); in the assay with KM-20L2 it was 10.4 µM (inactive); with LXFL 529, 36.8 µM (inactive); in the assay with M19-MEL it was 79.8 µM (inactive); with RXF 631, 48.2 µM (inactive). The GI50 with SNB-78 and with XF498 was > 100 µM (inactive) throughout.
As for `CNC(SC)=C1C(=O)OC(C)(C)OC1=O`, the GI50 in the assay with DMS-114 was 34.8 µM (inactive); with DMS-273 it was 0.499 µM (active); with HOP-18 it was > 100 µM (inactive); in the assay with KM-20L2, > 100 µM (inactive); with LXFL 529, > 100 µM (inactive); in the assay on M19-MEL it was > 100 µM (inactive). For the same compound, the results for the GI50 in the assay with SNB-78 and in the assay on XF498 were 36.4 µM (inactive) and > 100 µM (inactive), respectively.
`CCOC(=O)/C(=C/c1cccc(C#N)c1)N(CC)CC`: the GI50 with DMS-114, with HOP-18, in the assay with LXFL 529, in the assay on M19-MEL, with RXF 631 and in the assay on SNB-78 was > 100 µM (inactive) throughout. Besides, the GI50 in the assay on XF498 was > 100 µM (inactive).
Turning to `Cc1c(C(=N)N)oc2ccccc12`, the GI50 with DMS-114, in the assay with HOP-18, in the assay with KM-20L2, in the assay on LXFL 529, with M19-MEL and in the assay with SNB-78 was > 100 µM (inactive) throughout. The GI50 in the assay with XF498 is 21.4 µM (inactive).
On to `CC12C=CC(=O)C=C1CCC1C3CCC(O)(C(=O)CO)C3(C)CC(O)C12F` (centres undefined), for which the GI50 in the assay on DMS-114, with DMS-273, in the assay on KM-20L2, in the assay with LXFL 529, in the assay with M19-MEL and in the assay with SNB-78 was > 100 µM (inactive) in each case. Also, in the assay on XF498, the GI50 is > 100 µM (inactive).
On to `COc1ccc(C2=NN(c3ccccc3)C[N+](c3ccc(C)cc3)=N2)cc1`, for which the GI50 is 24.7 µM (inactive) in the assay with DMS-114; > 10 µM (inactive) with DMS-273; 59 µM (inactive) in the assay on KM-20L2; 16.3 µM (inactive) in the assay with LXFL 529; 29.9 µM (inactive) in the assay on M19-MEL; 27.9 µM (inactive) in the assay on SNB-78. Moreover, the GI50 in the assay with XF498 was 25.3 µM (inactive).
`O=c1[nH][nH]c(=O)[nH]1`: the GI50 in the assay on DMS-273, in the assay with KM-20L2, with M19-MEL, with SNB-78 and in the assay with XF498 was > 100 µM (inactive) each time.
For the compound `CC(=O)Nc1ccc(C(=O)NN2C(=O)C(Cl)C2c2ccccc2O)cc1` (centres undefined), the GI50 was 99.1 µM (inactive) with DMS-273, > 100 µM (inactive) in the assay on KM-20L2, > 100 µM (inactive) in the assay with LXFL 529 and 28.1 µM (inactive) in the assay with XF498.
Take `C=CCC(O)c1cc(OC)ccc1OC` (centres undefined): the GI50 with DMS-114, with DMS-273, in the assay on LXFL 529, in the assay on M19-MEL, with RXF 631 and with XF498 was > 100 µM (inactive) in each case.
Turning to `COc1cc(C(=O)C/C(CCC(=O)Nc2ccc(Cl)cc2Cl)=N/Nc2nnc(C)n2N)ccc1O`, the GI50 in the assay on DMS-273, with HOP-18, with KM-20L2, in the assay on LXFL 529, with M19-MEL and in the assay with SNB-78 was > 100 µM (inactive) in each case. The GI50 in the assay on XF498 was > 100 µM (inactive).
With `COC1C(OC(=O)c2ccc(C)[nH]2)C(O)C(Oc2ccc3c(O)c(NC(=O)c4c[nH]c(C(=O)Nc5c(O)c6ccc(OC7OC(C)(C)C(OC)C(OC(=O)c8ccc(C)[nH]8)C7O)c(C)c6oc5=O)c4C)c(=O)oc3c2C)OC1(C)C` (centres undefined), the GI50 with DMS-114 is 2.02 µM (inactive); in the assay with DMS-273, 2.86 µM (inactive); in the assay on HOP-18, 0.596 µM (active); in the assay on KM-20L2, 2.4 µM (inactive); in the assay on LXFL 529, 1.07 µM (active); in the assay with M19-MEL it was 1.64 µM (inactive). For the same compound, the GI50 is 1.56 µM (inactive) in the assay with SNB-78 and 2.18 µM (inactive) with XF498.
In the case of `CCOC(=O)C(C(=O)OCC)S(C)(=O)=O`, the GI50 in the assay on DMS-114, with DMS-273, with HOP-18, in the assay on KM-20L2, with M19-MEL and in the assay on RXF 631 was > 100 µM (inactive) each time. Also, in the assay with XF498, the GI50 is > 100 µM (inactive).
Turning to `O=C1c2ccccc2C(=O)C2C3c4ccccc4C(c4ccccc43)C12` (centres undefined), the GI50 with DMS-114 was 16.8 µM (inactive); with DMS-273 it was 19.1 µM (inactive); in the assay on KM-20L2 it was > 100 µM (inactive); in the assay on LXFL 529 it was 15.3 µM (inactive); with M19-MEL it was 18.5 µM (inactive); in the assay on SNB-78, 18.7 µM (inactive).
As for `c1cncc(C2c3[nH]c4ccccc4c3CCN2CCN2CCCCC2)c1` (centres undefined), the GI50 with DMS-114, in the assay on DMS-273, with HOP-18, in the assay with KM-20L2, with LXFL 529 and in the assay with M19-MEL was > 100 µM (inactive) in each case. Also, the GI50 with RXF 631, in the assay with SNB-78 and in the assay with XF498 was > 100 µM (inactive) each time.
Take `CC1=Nc2ccccc2S(=O)(=O)N1`: the GI50 with DMS-114, in the assay with DMS-273, with HOP-18, in the assay on KM-20L2, in the assay with LXFL 529 and with M19-MEL was > 100 µM (inactive) throughout. In the assay on SNB-78, the GI50 is > 100 µM (inactive).
For the compound `CN(C)CCNC(=O)c1ccc(Cl)c2c(Nc3ccc(S(N)(=O)=O)cc3)c3ccccc3nc12`, the GI50 in the assay with DMS-114 is 1.76 µM (inactive); in the assay on DMS-273, 1.55 µM (inactive); with HOP-18 it was 2.2 µM (inactive); in the assay on KM-20L2, 2.68 µM (inactive); in the assay on LXFL 529 it was 0.564 µM (active); with M19-MEL, 1.63 µM (inactive). The GI50 with RXF 631 was 0.566 µM (active); with XF498, 0.165 µM (active).
Consider `CC(=O)O[C@H]1CCC2[C@@H]3CCC4c5nonc5CC[C@]4(C)C3CC[C@@]21C` (some centres undefined), for which the GI50 in the assay with DMS-114, with DMS-273, with HOP-18, with KM-20L2, with LXFL 529 and in the assay on M19-MEL was > 10 µM (inactive) throughout. For the same compound, the GI50 in the assay on SNB-78 was > 10 µM (inactive).
Regarding `N=C1NC2(O)C(=O)c3ccccc3C2(O)N1` (centres undefined), the GI50 with DMS-114, in the assay with DMS-273, in the assay on HOP-18, in the assay with KM-20L2, in the assay with LXFL 529 and in the assay with RXF 631 was > 100 µM (inactive) each time. For the same compound, in the assay with SNB-78, the GI50 was > 100 µM (inactive).
